This is an account of results in patent US9527857B2, “HSPC-sparing treatments for RB-positive abnormal cellular proliferation” (G1 Therapeutics, Inc., priority 2013, dated 2016).

One may read the bioavailability as dose-corrected exposure relative to a reference, in per cent.

Each structure is given as a SMILES string. Entries after “also recorded” stand apart in the source; their conditions may differ.

The test system of data set [1] is Rb phosphorylation at Ser780 and Ser807/811 in A2058. Kind of data set: Rb phosphorylation western blot, CDK4/6-independent cell line. Conditions: 300 nM; 4, 8, 16, 24 hours. The format is cell-based. As to the method: (§1) MAPK levels are shown as a control for protein levels. Following treatment, cells were harvested and analyzed for Rb-phosphorylation by western blot analysis.
(§2) The CDK4/6-cyclin D complex is essential for progression from G1 to the S-phase of the DNA cell cycle. This complex phosphorylates the retinoblastoma tumor suppressor protein (Rb). […] Samples were lysed and protein was assayed by western blot analysis. Rb phosphorylation was measured at two sites targeted by the CDK4/6-cyclin D complex, Ser780 and Ser807/811 using species specific antibodies.
(In general: Immunoblotting shows a protein as a band on a membrane.)

For data set [2], the system named is A2058 cells (CDK4/6-independent, Rb-negative). Kind of data set: Cell cycle arrest (propidium iodide flow cytometry), A2058. Type of data set: cell-based. Conditions: 300 nM, 24 hours. The source says: (§3) To test the ability of CDK4/6 inhibitors to induce a clean G1-arrest, a cell based screening method was used consisting of two CDK4/6-dependent cell lines (tHS68 and WM2664; Rb-positive) and one CDK4/6-independent (A2058; Rb-negative) cell line. […] At the conclusion of the experiment, cells were harvested, fixed, and stained with propidium iodide (a DNA intercalator), which fluoresces strongly red (emission maximum 637 nm) when excited by 488 nm light. Samples were run on Dako Cyan flow cytometer and >10,000 events were collected for each sample. Data were analyzed using FlowJo 2.2 software developed by TreeStar, Inc.
On the technique in general: A flow cytometer gives signals particle by particle.

Data set [3] deals with Rb phosphorylation at Ser780 and Ser807/811 in tHS68 and WM2664. Kind of data set: Rb phosphorylation western blot, CDK4/6-dependent cell lines. The format is cell-based. Particulars: 300 nM; 4, 8, 16, 24 hours. As for the experimental part: as §1, §2
The nature of data set [4]: Mouse pharmacokinetics (oral gavage / intravenous). Particulars: plasma, 30 mg/kg, read-out: F (oral bioavailability). Type of data set: in vivo, mice. As to the method: Blood samples were taken at 0, 0.25, 0.5, 1.0, 2.0, 4.0, and 8.0 hours post dosing and the plasma concentrations were determined by HPLC.
Data set [5] relates to tHS68 cells (CDK4/6-dependent, Rb-positive). Kind of data set: Cell cycle arrest (propidium iodide flow cytometry), tHS68. Type of data set: cell-based. Conditions: 24 hours.
Excerpt: as §3

The subject of data set [6] is WM2664 cells (CDK4/6-dependent, Rb-positive). Briefly: Cell cycle arrest (propidium iodide flow cytometry), WM2664. Particulars: 300 nM, 24 hours. Type of data set: cell-based.
Excerpt: as §3

Data set [7] has as its system MCF7 (breast adenocarcinoma, Rb-positive). Briefly: Cellular proliferation assay (CellTiter-Glo), MCF7. The format is cell-based. As for the experimental part:
The MCF7 cells were seeded in Costar (Tewksbury, Mass.) 3903 96 well tissue culture treated white walled/clear bottom plates. A nine point dose response dilution series from 10 uM to 1 nM was performed and cell viability was determined after six days of compound treatment as indicated using the CellTiter-Glo® luminescent cell viability assay (CTG; Promega, Madison, Wis., United States of America) following the manufacturer's recommendations. Plates were read on a BioTek (Winooski, Vt.) Syngergy2 multi-mode plate reader. The Relative Light Units (RLU) were plotted as a result of variable molar concentration and data was analyzed using Graphpad (LaJolla, Calif.) Prism 5 statistical software to determine the EC50 for each compound.
Cellular proliferation assays were conducted using the following cancer cell lines: MCF7 (breast adenocarcinoma—Rb-positive), ZR-75-1 (breast ductal carcinoma—Rb-positive), H69 (human small cell lung cancer—Rb-negative) cells, or A2058 (human metastatic melanoma cells—Rb-negative). These cells were seeded in Costar (Tewksbury, Mass.) […] 96 well tissue culture treated white walled/clear bottom plates. Cells were treated with the compounds of Table 1 as nine point dose response dilution series from 10 uM to 1 nM. Cells were exposed to compounds and then cell viability was determined after either four (H69) or six (MCF7, ZR75-1, A2058) days as indicated using the CellTiter-Glo® luminescent cell viability assay (CTG; Promega, Madison, Wis., United States of America) following the manufacturer's recommendations. Plates were read on BioTek (Winooski, Vt.) Syngergy2 multi-mode plate reader. The Relative Light Units (RLU) were plotted as a result of variable molar concentration and data was analyzed using Graphpad (LaJolla, Calif.) Prism 5 statistical software to determine the EC50 for each compound.
(ATP-based viability assays read luminescence as a measure of living cells.)

Data set [8] relates to MMTV-c-neu (Rb-positive) tumors. Kind of data set: MMTV-c-neu HER2-driven (Rb-positive) luminal breast cancer mouse model. The format is in vivo, mice. From the text: A HER2-driven model (Rb-positive) of breast cancer (Muller W J, Sinn E, Pattengale P K, Wallace R, Leder P. Single-step induction of mammary adenocarcinoma in transgenic mice bearing the activated c-neu oncogene. Cell 1988; 54: 105-15), that expresses c-neu (the mouse ortholog of human HER2) driven by the MMTV promoter was used in the following example. This model was chosen because previous studies in murine (Yu Q, Geng Y, Sicinski P. Specific protection against breast cancers by cyclin D1 ablation. Nature 2001; 411: 1017-21; Landis M W, Pawlyk B S, Li T, Sicinski P, Hinds P W. Cyclin D1-dependent kinase activity in murine development and mammary tumorigenesis. Cancer Cell 2006; 9: 13-22; Reddy H K, Mettus R V, Rane S G, Grana X, Litvin J, Reddy E P. Cyclin-dependent kinase 4 expression is essential for neu-induced breast tumorigenesis. Cancer Res 2005; 65: 10174-8; Yu Q, Sicinska E, Geng Y, Ahnstrom M, Zagozdzon A, Kong Y, et al. Requirement for CDK4 kinase function in breast cancer. Cancer Cell 2006; 9: 23-32.) and human HER2-positive breast cancer (An H X, Beckmann M W, Reifenberger G, Bender H G, Niederacher D. Gene amplification and overexpression of CDK4 in sporadic breast carcinomas is associated with high tumor cell proliferation. Am J Pathol 1999; 154: 113-8; Samady L, Dennis J, Budhram-Mahadeo V, Latchman DS. Activation of CDK4 gene expression in human breast cancer cells by the Brn-3b POU family transcription factor. Cancer Biol Ther 2004; 3: 317-23; Takano Y, Takenaka H, Kato Y, Masuda M, Mikami T, Saegusa M, et al. Cyclin D1 overexpression in invasive breast cancers: correlation with cyclin-dependent kinase 4 and oestrogen receptor overexpression, and lack of correlation with mitotic activity.
MMTV-neu mice were generated and observed post-lactation, with tumors observed with a median latency of approximately 25 weeks. Mice were enrolled in therapy studies when tumors reached a standard size (50-60 mm3) that permitted easy serial assessment. […] Tumor volumes were calculated by the formula, Volume=[(width)^2×length]/2. Tumor-bearing mice were euthanized at the indicated times due to predefined morbidity, tumor ulceration, or a tumor size of more than 1.5 cm in diameter.
Tumors were serially assessed weekly using caliper measurements. Therapeutic intervention began once tumors reached 40-64 mm^3. Tumor volume was calculated using the formula […]. All three compounds were administered orally via medicated diets (100 mg/kg/d). Medicated diets were administered for 28 consecutive days and then stopped. RECIST criteria were used to assess objective response rates.

Turning to `CN1CCN(c2ccc(Nc3ncc4cc5n(c4n3)C3(CCCCC3)CNC5=O)nc2)CC1` [T], in data set [1], the “Rb phosphorylation in CDK4/6-independent cells (A2058)” value was “no effect”. For the same compound, the “cell cycle distribution after treatment” value in data set [2] is “no effect; also recorded: does not cause a loss of the S-phase peak”; in data set [5] (300 nM, tHS68), “causes a loss of the S-phase peak”; in data set [6], “causes a loss of the S-phase peak”. For the same compound, the “Rb phosphorylation in CDK4/6-dependent cell lines (tHS68, WM2664)” value in data set [3] is reported as “blocks Rb phosphorylation in Rb-dependent cell lines by 16 hours post exposure; also recorded: reduced Rb-phosphorylation starting 16 hours after treatment”. Moreover, the bioavailability in data set [4] worked out at 80%. Also, the “S-phase cells at the highest concentration shown” value in data set [5] (tHS68 cells, 28% at baseline) is listed as 6%. Also, the “activity against MCF-7 cells compared with PD0332991 (FIG. 21)” value in data set [7] is “more potent activity against MCF-7 cells than PD0332991”. Besides, the “inhibition of cellular proliferation of MCF-7 cells (FIGS. 21-24)” value in data set [7] is “significant inhibition of cellular proliferation”. The “tumor volume during a 28 day course of therapy” value is “marked reduction in tumor volume” in data set [8] (100 mg/kg/d in chow, listed as Compound T); “marked decrease in tumor volume” in data set [8] (100 mg/kg/d in chow, listed as compound T); “marked reduction in tumor volume” in data set [8] (150 mg/kg/d in chow). This compound also gave an objective response rate in data set [8] (100 mg/kg/day medicated diet, 28 days, RECIST criteria) of 100%.
